Assay [1] has as its target ELAV-like protein 1 (Homo sapiens) (UniProt Q15717). The experiment in a line: Binding affinity to HuR (unknown origin) assessed as positive STD factor by measuring interaction of protons of ring B and its methoxy group with protein at 400 uM in 100% D2O buffer by DEEP-STD NMR analysis.
Assay [2] has the same target. The experiment in a line: Binding affinity to HuR (unknown origin) assessed as interaction of ring A and protons 5 and 3 with apolar residues and projection of protons 16 and 9-10 with polar residues of protein at 400 uM in H2O:D2O (90:10) buffer by DEEP-STD NMR analysis.
Assay [3] shares this target. In words: Binding affinity to HuR (unknown origin) assessed as negative STD factor by measuring interaction of protons 3, 9-10 and 16 with protein at 400 uM in 100% D2O buffer by DEEP-STD NMR analysis.
Assay [4] has the same target. The experiment in a line: Binding affinity to HuR (unknown origin) assessed as interaction of ring A and protons 16 with hydrophobic residues and projection of ring B and its methoxy group with polar residues of protein at 400 uM in H2O:D2O (90:10) buffer by DEEP-STD NMR analysis.

Active and inactive are the calls of the source. The calls are words filed in the database; no cut-off is given here.

ELAV-like protein 1 (Homo sapiens), sequence (Q15717 whole entry): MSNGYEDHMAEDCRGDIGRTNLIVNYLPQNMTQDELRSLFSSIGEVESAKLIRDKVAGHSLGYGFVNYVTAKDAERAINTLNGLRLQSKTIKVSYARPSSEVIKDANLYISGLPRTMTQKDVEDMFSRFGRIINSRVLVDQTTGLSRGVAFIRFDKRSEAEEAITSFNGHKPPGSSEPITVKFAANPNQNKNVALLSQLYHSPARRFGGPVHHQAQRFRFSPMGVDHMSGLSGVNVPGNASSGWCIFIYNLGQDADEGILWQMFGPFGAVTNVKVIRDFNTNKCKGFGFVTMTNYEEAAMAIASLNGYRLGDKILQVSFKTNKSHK

On to `COc1cc(OC)cc([C@@H]2[C@@H](C(=O)NCCNCc3ccccc3)CCC(=O)N2CC(C)C)c1`, for which the outcome in assay [1] and in assay [2] was Active.

Regarding `COc1cc(OC)cc([C@H]2[C@H](C(=O)NCCNCc3ccccc3)CCC(=O)N2CC(C)C)c1`, the result in assay [3] and in assay [4] was Active.
